From US8466279B2, “Polymorphs of efavirenz” (Hetero Drugs Limited, priority 2004, dated 2013)

How the values were obtained:
[1] = dissolution properties compared with the known forms; assay type: physicochemical
[2] = stability of the crystalline form; assay type: physicochemical

Row | SMILES | dissolution properties [1] | stability over the time [2] | stability relative to reported forms ([2]; versus Form I, Form II, Form III, Form 1, Form 2, Form 3, Form 4 and Form 5)
1 | O=C1Nc2ccc(Cl)cc2[C@@](C#CC2CC2)(C(F)(F)F)O1 [amorphous efavirenz, (4S)-6-chloro-4-(cyclopropylethynyl)-1,4-dihydro-4-(trifluoromethyl)-2H-3,1-benzoxazin-2-one] | better dissolution properties |  | 
2 | O=C1Nc2ccc(Cl)cc2[C@@](C#CC2CC2)(C(F)(F)F)O1 [efavirenz form H1, (4S)-6-chloro-4-(cyclopropylethynyl)-1,4-dihydro-4-(trifluoromethyl)-2H-3,1-benzoxazin-2-one] |  | stable over the time | at least as stable as the reported forms
